# Test results from patent publication US20260356851A1, “TRICYCLIC COMPOUNDS AND USES THEREOF” (HUTCHMED LIMITED, priority 2023, published 2026).
# Experiments:
# Type in all cases: cell-based
# [1] = molecular target: T1, pERK1/2 (Thr202/Tyr204), NCI-1H358 (KRAS G12C) (Homo sapiens, UniProt P01116, G12C); assay: Assay of intracellular pERK1/2 (Thr202/Tyr204) phosphorylation in NCI-H358 cells (KRAS G12C); conditions: pERK1/2, 2 days, read-out: NCI-H358 (KRAS G12C) IC50
# T1 construct: pERK1/2 HTRF read-out
# T1 sequence (P01116 1-188 isoform P01116-2 G12C): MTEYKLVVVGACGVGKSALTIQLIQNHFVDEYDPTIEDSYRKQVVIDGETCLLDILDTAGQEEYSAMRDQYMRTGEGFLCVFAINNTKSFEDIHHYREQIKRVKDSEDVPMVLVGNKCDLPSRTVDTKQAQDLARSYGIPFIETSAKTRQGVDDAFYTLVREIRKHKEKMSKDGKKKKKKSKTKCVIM
# In short: (§1)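 HTRF detection of Thr202/Tyr204-phosphorylated ERK1/2 (665/615 nm ratio) in lysates from cells treated 2 days with serially 3-fold diluted compound.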
# [2] = molecular target: T2, pERK1/2 (Thr202/Tyr204), PANC-1 (KRAS G121D) (Homo sapiens, UniProt P01116, G12D); assay: Assay of intracellular pERK1/2 (Thr202/Tyr204) phosphorylation in PANC-1 cells (KRAS G12D); conditions: pERK1/2, 2 days, read-out: PANC-1 (KRAS G12D) IC50
# T2 construct: pERK1/2 HTRF read-out
# T2 sequence (P01116 1-188 isoform P01116-2 G12D): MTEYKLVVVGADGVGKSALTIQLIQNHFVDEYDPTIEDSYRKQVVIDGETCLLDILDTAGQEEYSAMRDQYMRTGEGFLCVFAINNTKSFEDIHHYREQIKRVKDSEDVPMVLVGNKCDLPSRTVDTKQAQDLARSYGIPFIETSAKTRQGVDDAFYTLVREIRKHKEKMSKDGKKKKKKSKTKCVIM
# In short: as §1
# [3] = molecular target: T3, pERK1/2 (Thr202/Tyr204), NCI-1H441 (KRAS G12V) (Homo sapiens, UniProt P01116, G12V); assay: Assay of intracellular pERK1/2 (Thr202/Tyr204) phosphorylation in NCI-H441 cells (KRAS G12V); conditions: pERK1/2, 2 days, read-out: NCI-H441 (KRAS G12V) IC50
# T3 construct: pERK1/2 HTRF read-out
# T3 sequence (P01116 1-188 isoform P01116-2 G12V): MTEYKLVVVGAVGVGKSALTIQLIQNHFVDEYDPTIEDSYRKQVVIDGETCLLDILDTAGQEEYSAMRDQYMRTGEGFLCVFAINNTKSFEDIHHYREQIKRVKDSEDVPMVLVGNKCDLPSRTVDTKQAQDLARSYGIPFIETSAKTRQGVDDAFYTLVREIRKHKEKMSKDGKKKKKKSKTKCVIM
# In short: as §1
SMILES,IC50 [1] [nM],IC50 [2] [nM],IC50 [3] [nM]
"CC(c1cccnc1N)N1c2nc(OC[C@@]34CCCN3C[C@H](F)C4)nc3c(F)c(-c4cc(N)cc(Cl)c4C(F)(F)F)nc(c23)OC[C@@H]1C (single isomer, unassigned) [Compound 271, 3-((R or S)-1-((S)-5-(5-amino-3-chloro-2-(trifluoromethyl)phenyl)-4-fluoro-2-(((2R,7aS)-2-fluorotetrahydro-1H-pyrrolizin-7a(5H)-yl)methoxy)-9-methyl-8,9-dihydro-10H-7-oxa-1,3,6,10-tetraazacyclohepta[de]naphthalen-10-yl)ethyl)pyridin-2-amine]",66,> 100,> 100
"CC(c1cccnc1N)N1c2nc(OC[C@@]34CCCN3C[C@H](F)C4)nc3c(F)c(-c4cc(N)c(F)c(Cl)c4C(F)(F)F)nc(c23)OC[C@@H]1C (single isomer, unassigned) [Compound 272, 3-((R or S)-1-((S)-5-(5-amino-3-chloro-4-fluoro-2-(trifluoromethyl)phenyl)-4-fluoro-2-(((2R,7aS)-2-fluorotetrahydro-1H-pyrrolizin-7a(5H)-yl)methoxy)-9-methyl-8,9-dihydro-10H-7-oxa-1,3,6,10-tetraazacyclohepta[de]naphthalen-10-yl)ethyl)pyridin-2-amine]",57,> 100,> 100
"C#Cc1c(F)ccc2cc(O)cc(-c3nc4c5c(nc(OC[C@@]67CCCN6C[C@H](F)C7)nc5c3F)N(C(C)c3cccnc3N)[C@@H](C)CO4)c12 (single isomer, unassigned) [Compound 273, 4-((S)-10-((R or S)-1-(2-aminopyridin-3-yl)ethyl)-4-fluoro-2-(((2R,7aS)-2-fluorotetrahydro-1H-pyrrolizin-7a(5H)-yl)methoxy)-9-methyl-9,10-dihydro-8H-7-oxa-1,3,6,10-tetraazacyclohepta[de]naphthalen-5-yl)-5-ethynyl-6-fluoronaphthalen-2-ol]",0.5,0.4,1
"C#Cc1c(F)ccc2cc(O)cc(-c3nc4c5c(nc(OC[C@@]67CCCN6C[C@H](F)C7)nc5c3F)N(C(C)c3cccnc3N)[C@@H](C)CO4)c12 (single isomer, unassigned) [Compound 274, 4-((S)-10-((R or S)-1-(2-aminopyridin-3-yl)ethyl)-4-fluoro-2-(((2R,7aS)-2-fluorotetrahydro-1H-pyrrolizin-7a(5H)-yl)methoxy)-9-methyl-9,10-dihydro-8H-7-oxa-1,3,6,10-tetraazacyclohepta[de]naphthalen-5-yl)-5-ethynyl-6-fluoronaphthalen-2-ol]",5,13,8
"CC(c1cccnc1N)N1c2nc(OC[C@@]34CCCN3C[C@H](F)C4)nc3c(F)c(-c4cc(O)cc5ccc(F)c(F)c45)nc(c23)OC[C@@H]1C (single isomer, unassigned) [Compound 276, 4-((S)-10-((R or S)-1-(2-aminopyridin-3-yl)ethyl)-4-fluoro-2-(((2R,7aS)-2-fluorotetrahydro-1H-pyrrolizin-7a(5H)-yl)methoxy)-9-methyl-9,10-dihydro-8H-7-oxa-1,3,6,10-tetraazacyclohepta[de]naphthalen-5-yl)-5,6-difluoronaphthalen-2-ol]",77,> 100,> 100
"Cc1c(F)c(N)cc(-c2nc3c4c(nc(OC[C@@H]5C[C@@H](F)CN5C)nc4c2F)N(C(C)c2cccnc2N)[C@@H](C)CO3)c1C(F)(F)F (single isomer, unassigned) [Compound 277, 3-((R or S)-1-((S)-5-(5-amino-4-fluoro-3-methyl-2-(trifluoromethyl)phenyl)-4-fluoro-2-(((2S,4R)-4-fluoro-1-methylpyrrolidin-2-yl)methoxy)-9-methyl-8,9-dihydro-10H-7-oxa-1,3,6,10-tetraazacyclohepta[de]naphthalen-10-yl)ethyl)pyridin-2-amine]",93,> 100,> 100
"CCc1c(F)ccc2cc(O)cc(-c3nc4c5c(nc(OC[C@@]67CCCN6C[C@H](F)C7)nc5c3F)N(C(C)c3cccnc3N)[C@@H](C)CO4)c12 (single isomer, unassigned) [Compound 280, 4-((S)-10-((R or S)-1-(2-aminopyridin-3-yl)ethyl)-4-fluoro-2-(((2R,7aS)-2-fluorotetrahydro-1H-pyrrolizin-7a(5H)-yl)methoxy)-9-methyl-9,10-dihydro-8H-7-oxa-1,3,6,10-tetraazacyclohepta[de]naphthalen-5-yl)-5-ethyl-6-fluoronaphthalen-2-ol]",6,5,11
"Cc1cc(N)cc(-c2nc3c4c(nc(OC[C@@H]5C[C@@H](F)CN5C)nc4c2F)N(C(C)c2cccnc2N)[C@@H](C)CO3)c1C(F)(F)F (single isomer, unassigned) [Compound 283, 3-((R or S)-1-((S)-5-(5-amino-3-methyl-2-(trifluoromethyl)phenyl)-4-fluoro-2-(((2S,4R)-4-fluoro-1-methylpyrrolidin-2-yl)methoxy)-9-methyl-8,9-dihydro-10H-7-oxa-1,3,6,10-tetraazacyclohepta[de]naphthalen-10-yl)ethyl)pyridin-2-amine]",55,> 100,> 100
"C#Cc1c(F)ccc2cc(O)cc(-c3nc4c5c(nc(OC[C@@H]6C[C@@H](F)CN6C)nc5c3F)N(C(C)c3cccnc3N)[C@@H](C)CO4)c12 (single isomer, unassigned) [Compound 285, 4-((S)-10-((R or S)-1-(2-aminopyridin-3-yl)ethyl)-4-fluoro-2-(((2S,4R)-4-fluoro-1-methylpyrrolidin-2-yl)methoxy)-9-methyl-9,10-dihydro-8H-7-oxa-1,3,6,10-tetraazacyclohepta[de]naphthalen-5-yl)-5-ethynyl-6-fluoronaphthalen-2-ol]",27,86,17

# Compounds with a lower IC50 [1], results first:
IC50 [1] [nM],IC50 [2] [nM],IC50 [3] [nM],SMILES
0.4,0.4,0.8,"CC(c1cccnc1N)N1c2nc(OC[C@@]34CCCN3C[C@H](F)C4)nc3c(F)c(-c4cc(O)cc5ccc(F)c(F)c45)nc(c23)OC[C@@H]1C (single isomer, unassigned) [Compound 275, 4-((S)-10-((R or S)-1-(2-aminopyridin-3-yl)ethyl)-4-fluoro-2-(((2R,7aS)-2-fluorotetrahydro-1H-pyrrolizin-7a(5H)-yl)methoxy)-9-methyl-9,10-dihydro-8H-7-oxa-1,3,6,10-tetraazacyclohepta[de]naphthalen-5-yl)-5,6-difluoronaphthalen-2-ol]"
0.2,2,0.6,"Cc1c(F)c(N)cc(-c2nc3c4c(nc(OC[C@@H]5C[C@@H](F)CN5C)nc4c2F)N(C(C)c2cccnc2N)[C@@H](C)CO3)c1C(F)(F)F (single isomer, unassigned) [Compound 278, 3-((R or S)-1-((S)-5-(5-amino-4-fluoro-3-methyl-2-(trifluoromethyl)phenyl)-4-fluoro-2-(((2S,4R)-4-fluoro-1-methylpyrrolidin-2-yl)methoxy)-9-methyl-8,9-dihydro-10H-7-oxa-1,3,6,10-tetraazacyclohepta[de]naphthalen-10-yl)ethyl)pyridin-2-amine]"
0.3,0.2,0.4,"CCc1c(F)ccc2cc(O)cc(-c3nc4c5c(nc(OC[C@@]67CCCN6C[C@H](F)C7)nc5c3F)N(C(C)c3cccnc3N)[C@@H](C)CO4)c12 (single isomer, unassigned) [Compound 279, 4-((S)-10-((R or S)-1-(2-aminopyridin-3-yl)ethyl)-4-fluoro-2-(((2R,7aS)-2-fluorotetrahydro-1H-pyrrolizin-7a(5H)-yl)methoxy)-9-methyl-9,10-dihydro-8H-7-oxa-1,3,6,10-tetraazacyclohepta[de]naphthalen-5-yl)-5-ethyl-6-fluoronaphthalen-2-ol]"
0.2,3,0.4,"Cc1cc(N)cc(-c2nc3c4c(nc(OC[C@@H]5C[C@@H](F)CN5C)nc4c2F)N(C(C)c2cccnc2N)[C@@H](C)CO3)c1C(F)(F)F (single isomer, unassigned) [Compound 282, 3-((R or S)-1-((S)-5-(5-amino-3-methyl-2-(trifluoromethyl)phenyl)-4-fluoro-2-(((2S,4R)-4-fluoro-1-methylpyrrolidin-2-yl)methoxy)-9-methyl-8,9-dihydro-10H-7-oxa-1,3,6,10-tetraazacyclohepta[de]naphthalen-10-yl)ethyl)pyridin-2-amine]"
0.2,0.3,0.5,"C#Cc1c(F)ccc2cc(O)cc(-c3nc4c5c(nc(OC[C@@H]6C[C@@H](F)CN6C)nc5c3F)N(C(C)c3cccnc3N)[C@@H](C)CO4)c12 (single isomer, unassigned) [Compound 284, 4-((S)-10-((R or S)-1-(2-aminopyridin-3-yl)ethyl)-4-fluoro-2-(((2S,4R)-4-fluoro-1-methylpyrrolidin-2-yl)methoxy)-9-methyl-9,10-dihydro-8H-7-oxa-1,3,6,10-tetraazacyclohepta[de]naphthalen-5-yl)-5-ethynyl-6-fluoronaphthalen-2-ol]"
